The subject of series [1] is P. aeruginosa strains 762, PA14 and ATCC 27853. Kind of series: Pulmonary P. aeruginosa infection of CF and CerS2 null mice, inhalation treatment (bacteria in lung, sickness score). In kind it is in vivo, mouse. The procedure: (A,B) The number of bacteria in the lungs and the overall sickness score (C,D) of WT, CerS2 null and CF mice 3-4 h after intranasal infection with 1×10^8 CFU of P. aeruginosa strains 762 (A,C) and CF mice with strains PA14 and ATCC 27853. Mice were inhaled with 0.9% NaCl or acid ceramidase 1 h prior (b.i.) to infection, or with sphingosine or FTY720 1 h before (b.i.) or 1 h after (a.i.) infection. Sickness score 4, severely affected (unresponsive animal); score 3 affected, (heavy breathing, low body temperature, ruffled fur) score 2, moderately affected (ruffled fur, heavy breathing); score 1, slightly affected (ruffled fur); score 0, unaffected (healthy appearance). Data are means±s.d., n=4.
Pulmonary infection of CF or CerS2 mice was achieved by intranasal application of P. aeruginosa strains 762, ATCC 27853 or PA14. Mice inhaled acid ceramidase, sphingosine, FTY720 or a combination of sphingosine and ceramide 1 hr before or after pulmonary infection. The number of bacteria in the lung was determined by culturing aliquots of lysed lungs on agar plates. Clinical symptoms of the infection were scored.
Inhalation was performed with a PARI Boy SX nebulizer (PARI GmbH, Starnberg, Germany). This nebulizer generates a fine aerosol mist by pumping the fluid with an air jet. The mice inhaled the aerosol via a mask that is part of an oral inhalation device for children (LL-Nebulizer); the mask was clipped at the sides to cover only the mouse's nose and the surrounding part of the face. […]
P. aeruginosa were grown for 14 to 14.5 h on fresh tryptic soy agar (TSA) plates (Becton Dickinson Biosciences, Germany). […] The bacterial OD was determined, and the bacteria were diluted in prewarmed H/S to a concentration of 1×10^8 CFU per 20 μL. […]
Lungs were removed, homogenised and lysed for 10 min in 5 mg/ml saponin to release intracellular bacteria. […] Bacterial counts (CFU) were counted after 18 h.

In series [2] the test system is P. aeruginosa strain 762. Kind of series: Incubation of bacteria with sphingosine and increasing C16-ceramide, CFU count. In kind it is cell-based, Pseudomonas aeruginosa. The settings on record: in the presence of 10 μM sphingosine. The method, then: FIGS. 4A-D. The ceramide/sphingosine ratio regulates P. aeruginosa growth. (A) Representative image of two independent experiments (left hand panel) after addition of Sytox green (1 μM) for 30 min in the absence or presence of 50 μM sphingosine or 50 μM C16-ceramide (C16-Cer) in 1% DMSO. Fluorescent and thus permeabilised bacteria were quantified (right hand panel). (B-D) The inhibitory effect of sphingosine on the growth of P. aeruginosa strain 762 is decreased in vitro and in vivo by C16-ceramide. (B) Bacteria were incubated with 10 μM sphingosine, and increasing concentrations of C16-ceramide, and growth was determined by counting colony forming unit (CFU) after 24 hrs growth on LB agar plates. Number of bacteria in the lung (C) and sickness score (D) of CF mice or WT mice inhaled with either sphingosine or a combination of sphingosine and C16-ceramide 1 h before (b.i.) with 10^8 P. aeruginosa CFU strain 762. Data are means±s.d., n=3 in (A,B) and n=4 in (C,D).
The in vitro effect of sphingosine in the presence or absence of ceramide was determined by incubation of early-logarithmic grown P. aeruginosa with sphingosine or ceramide or both in different ratios and measurement of surviving bacteria measuring the number of colony forming units 24 and 48 hrs after treatment.
Bacteria were incubated in vitro with sphingosine and increasing amounts of C16-ceramide. […]

For series [3], the system named is P. aeruginosa strain 762. Kind of series: Effect of LCBs on P. aeruginosa growth in vitro (colony counts). Type of series: cell-based, Pseudomonas aeruginosa. The conditions noted are these: Pseudomonas aeruginosa. The method, then: P. aeruginosa strain 762 or ATCC 27853 were grown in LB medium at 37° C. until the early logarithmic phase (OD550 0.2). Bacteria were then diluted in PBS to a concentration of 5×10^3 CFU/ml. Stock solutions of sphingolipids (5 mM in 7.5% n-Octyl-β-D-Glucopyranoside (OGP) or in DMSO were prepared by sonication. Sphingolipids were added to the bacteria (0.1-50 μM in 0.075% OGP or 1% DMSO). Bacteria were incubated with sphingolipids for 2 hr at 37° C. and a sample of 200 μl bacteria solution were plated on LB agar plates, incubated overnight at 37° C. and colonies were counted.
The direct effect of sphingosine and other sphingoid long chain bases (LCBs) on the growth of P. aeruginosa was examined in vitro. Bacteria were incubated with a variety of LCBs and the EC50 values on bacterial growth were determined (Table 1).

For series [4] the following is noted: superscript reference marks; cited from earlier work.
The subject of series [5] is P. aeruginosa ATCC 27853 internalization into tracheal epithelial cells. Kind of series: Uptake of P. aeruginosa into tracheal epithelial cells with cytochalasin B. In kind it is cell-based, mouse. The conditions noted are these: 10 μM cytochalasin B; strain ATCC 27853; data not shown.

Entries after “also recorded” stand apart in the source; their conditions may differ. Where two headings read alike, the source gives them in different places.

As usually defined, the EC50 is the concentration giving half of the maximal effect.

As to `CCCCCCCCCCCCC/C=C/[C@@H](O)[C@H](CO)NC(=O)CCCCCCCCCCCCCCC` [C16-ceramide], in series [1] (CF mice, C16-ceramide and sphingosine at a 1:1 molar ratio, 1 h before infection, strain 762), the “effect of co-inhaled C16-ceramide on protection by sphingosine” value was “abrogated the protective effect of sphingosine and restored susceptibility to P. aeruginosa infection”. The “C16-ceramide concentration restoring bacterial growth” value with P. aeruginosa strain 762 [2] is no less than 10 µM.

With `CCCCCCCCc1ccc(CCC(N)(CO)CO)cc1` [FTY720, 2-amino-2-[2-(4-octylphenyl)ethyl]propane-1,3-diol], the EC50 in the series on P. aeruginosa strain 762 [3] (762, Table 3, Example 3, method of Example 2, n=3 for each analog, given as ranges, read-out: EC50) was 1 to 5 µM; with P. aeruginosa strain 762 [3] (P. aeruginosa strain 762, 2 hrs at 37° C. in 0.075% OGP, colonies counted, at least 3 independent experiments, read-out: EC50 (μM) ± S.D.), 1.9 µM. For the same compound, in series [1] (CF and CerS2 null mice, inhalation (125 μM) 1 h before or 1 h after intranasal infection with 1×10^8 CFU), the “protection from pulmonary P. aeruginosa infection” value is “completely protected CF and CerS2 null mice from P. aeruginosa infection and even eliminated an existing infection; also recorded: potent inhibitor in vivo; also recorded: rescue CF and CerS2 null mice from pulmonary P. aeruginosa infection; also recorded: prevents pulmonary P. aeruginosa infection”. Also, the “pK (in PBS)” value in series [4] is 7.8^3.

As for `C=C1[C@@H](C)[C@H]2[C@H](Cc3ccccc3)NC(=O)[C@]23OC(=O)/C=C/[C@H](O)CCC[C@@H](C)C/C=C/[C@H]3[C@@H]1O` [cytochalasin B], in series [5], the “internalization of P. aeruginosa into tracheal epithelial cells” value was “prevented internalization”.

Values taken from patent publication US20150258043A1, “USE OF SPHINGOID LONG CHAIN BASES AND THEIR ANALOGS IN TREATING AND PREVENTING BACTERIAL INFECTIONS” (YEDA RESEARCH AND DEVELOPMENT CO. LTD., priority 2012, published 2015).
